# Tests used:
# [1] = system: MIA PaCa-2 (human pancreatic carcinoma) cells; test: Cell Viability Assay (CellTiter-Glo), MIA PaCa-2; format: cell-based; settings: Homo sapiens, MIA PaCa-2, 72 h
# Protocol: Serially-diluted compound or DMSO was added to the cells, and plates were incubated at 37° C., 5% CO2 for 72 h. Cell viability was measured using a CellTiter-Glo® Luminescent Cell Viability Assay kit (Promega) according to the manufacturer's protocol. The luminescence signal of treated samples was normalized to DMSO control, and data were analyzed using a 4-parameter logistic model to calculate IC50 values.
# KRAS G12C = KRAS G12C (Homo sapiens (Human), UniProt P01116, C118A/G12C); test: 2 h coupled exchange assay; format: biochemical; settings: Avg 2 h Coupled exchange IC50, 2 h compound pre-incubation, SOS-mediated nucleotide exchange
# Protocol: The term “2 h coupled exchange assay” or “20 h coupled exchange assay” as used herein refers to the assay described in the Section entitled “BIOLOGICAL EVALUATION.”
# [2] = system: A549 (human lung carcinoma) cells; test: Cell Viability Assay (CellTiter-Glo), A549; format: cell-based; settings: Homo sapiens, A549, 72 h
# In short: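 Cells grown in RPMI 1640 with 10% FBS were seeded at 1.67E+04 cells/mL and left overnight at 37° C., 5% CO2. They were then exposed to serially diluted compound for 72 h, after which CellTiter-Glo luminescence was read, normalized to DMSO, and fitted to a 4-parameter logistic model for IC50.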
# Sequence of KRAS G12C (P01116 other isoform, or with tags, fused parts or gaps G12C/C118A): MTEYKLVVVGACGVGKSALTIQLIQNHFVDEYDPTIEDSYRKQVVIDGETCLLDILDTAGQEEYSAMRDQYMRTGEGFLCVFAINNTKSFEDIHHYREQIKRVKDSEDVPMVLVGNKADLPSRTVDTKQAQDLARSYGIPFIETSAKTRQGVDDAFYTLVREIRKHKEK
Compound,IC50 [1],IC50 (KRAS G12C),IC50 [2]
"C=CC(=O)N1CC2(CCN(c3cc4c(c(-c5c(C)ccc6cnn(C)c56)c3C#N)COCC4)C2)C1 [Example 2-96, 8-(1,6-dimethyl-1H-indazol-7-yl)-6-(2-(2-propenoyl)-2,6-diazaspiro[3,4]octan-6-yl)-3,4-dihydro-1H-2-benzopyran-7-carbonitrile]",246 nM,232 nM,> 5000 nM
"C=CC(=O)N1CC2(CCN(c3cc4c(c(-c5c(C)ccc6cnn(C)c56)c3C#N)CCC(C)(C)C4)C2)C1 [Example 2-97, 1-(1,6-dimethyl-1H-indazol-7-yl)-6,6-dimethyl-3-(2-(2-propenoyl)-2,6-diazaspiro[3.4]octan-6-yl)-5,6,7,8-tetrahydro-2-naphthalenecarbonitrile]",207 nM,82 nM,> 5000 nM
"C=CC(=O)N1CC2(CCN(c3cc4c(c(-c5c(C(F)(F)F)ccc6[nH]ncc56)c3Cl)OCCC4)C2)C1 [Example 2-103, 1-(6-(7-chloro-8-(5-(trifluoromethyl)-1H-indazol-4-yl)-3,4-dihydro-2H-chromen-6-yl)-2,6-diazaspiro[3.4]octan-2-yl)-2-propen-1-one]",118 nM,294 nM,> 5000 nM
"C=CC(=O)N1CC2(C1)CN(c1nc3c(c(-c4c(C)ccc5[nH]ncc45)c1C#N)CCC(C)(C)C3)CC2(F)F [Example 2-105, 2-(8,8-difluoro-2-(2-propenoyl)-2,6-diazaspiro[3.4]octan-6-yl)-7,7-dimethyl-4-(5-methyl-1H-indazol-4-yl)-5,6,7,8-tetrahydro-3-quinolinecarbonitrile]",425 nM,91 nM,3420 nM
"C=CC(=O)N1CC2(CCN(c3nc(-c4c(C)ccc5[nH]ncc45)c4c(n3)N(C)CC4)C2)C1 [Example 5, 1-(6-(7-methyl-4-(5-methyl-1H-indazol-4-yl)-6,7-dihydro-5H-pyrrolo[2,3-d]pyrimidin-2-yl)-2,6-diazaspiro[3.4]octan-2-yl)prop-2-en-1-one]",12900 nM,181000 nM,> 25000 nM
"C=CC(=O)N1CC2(CCN(c3cc4c(ncn4C)c(-c4c(C)ccc5[nH]ncc45)c3C#N)C2)C1 [Example 7, 1-methyl-4-(5-methyl-1H-indazol-4-yl)-6-(2-(2-propenoyl)-2,6-diazaspiro[3.4]octan-6-yl)-1H-benzimidazole-5-carbonitrile]",3420 nM,879 nM,> 5000 nM
"C=CC(=O)N1CC2(CCN(c3nc4c(c(-c5c(C)ccc6c(Cl)c[nH]c56)c3C#N)COC(C)(C)C4)C2)C1 [Example 12-20, 4-(3-chloro-6-methyl-1H-indol-7-yl)-7,7-dimethyl-2-(2-(2-propenoyl)-2,6-diazaspiro[3.4]octan-6-yl)-7,8-dihydro-5H-pyrano[4,3-b]pyridine-3-carbonitrile]",2570 nM,105 nM,> 5000 nM
"C=CC(=O)N1CC2(CCN(c3nc4c(c(-c5cc(O)cnc5Cl)c3C#N)C[C@H]3C[C@@H]4C3(C)C)C2)C1 [Example 12-35, (1R,9R)-6-(2-chloro-5-hydroxy-3-pyridinyl)-10,10-dimethyl-4-(2-(2-propenoyl)-2,6-diazaspiro[3.4]octan-6-yl)-3-azatricyclo[7.1.1.0^2,7] undeca-2,4,6-triene-5-carbonitrile]",1090 nM,44 nM,> 5000 nM
"C=CC(=O)N1CC2(CCN(c3nc4c(c(-c5cccc6cc(O)ccc56)c3C#N)COC(C)(C)C4)C2)C1 [Example 12-41, 4-(6-hydroxy-1-naphthalenyl)-7,7-dimethyl-2-(2-(2-propenoyl)-2,6-diazaspiro[3.4]octan-6-yl)-7,8-dihydro-5H-pyrano[4,3-b]pyridine-3-carbonitrile]",502 nM,110 nM,> 5000 nM
"C=CC(=O)N1CC2(CCN(c3nc4c(c(-c5cccc6c(F)c(O)ccc56)c3C)COC(C)(C)C4)C2)C1 [Example 12-45, 1-(6-(4-(5-fluoro-6-hydroxy-1-naphthalenyl)-3,7,7-trimethyl-7,8-dihydro-5H-pyrano[4,3-b]pyridin-2-yl)-2,6-diazaspiro[3.4]octan-2-yl)-2-propen-1-one]",> 5000 nM,760 nM,> 5000 nM
"Cc1ccc2[nH]ncc2c1-c1c(C#N)c(N2CCC3(CN(C(=O)/C=C/CN(C)C)C3)C2)nc2c1CCC(C)(C)C2 [Example 13-2, 2-(2-((2E)-4-(dimethylamino)-2-butenoyl)-2,6-diazaspiro[3.4]octan-6-yl)-7,7-dimethyl-4-(5-methyl-1H-indazol-4-yl)-5,6,7,8-tetrahydro-3-quinolinecarbonitrile]",366 nM,61 nM,3700 nM

# Compounds with a lower IC50 [1], results first:
IC50 [1],IC50 (KRAS G12C),IC50 [2],Compound
110 nM,55 nM,> 5000 nM,"C=CC(=O)N1CC2(CCN(c3cc4c(c(-c5cc(O)cc6ccccc56)c3C#N)CCC(C)(C)C4)C2)C1 [Example 2-98, 3′-hydroxy-6,6-dimethyl-3-(2-(2-propenoyl)-2,6-diazaspiro[3,4]octan-6-yl)-5,6,7,8-tetrahydro[1,1′-binaphthalene]-2-carbonitrile]"
92 nM,20 nM,> 5000 nM,"C=CC(=O)N1CC2(CCN(c3nc4c(c(-c5cc(O)cc(F)c5Cl)c3C#N)C[C@H]3C[C@@H]4C3(C)C)C2)C1 [Example 12-34, (1R,9R)-6-(2-chloro-3-fluoro-5-hydroxyphenyl)-10,10-dimethyl-4-(2-(2-propenoyl)-2,6-diazaspiro[3.4]octan-6-yl)-3-azatricyclo[7.1.1.0^2,7] undeca-2,4,6-triene-5-carbonitrile]"
88 nM,94 nM,> 5000 nM,"C=CC(=O)N1CC2(CCN(c3nc4c(c(-c5cc(O)cc(C)c5Cl)c3C)COC(C)(C)C4)C2)C1 [Example 12-1, 1-(6-(4-(2-chloro-5-hydroxy-3-methylphenyl)-3,7,7-trimethyl-7,8-dihydro-5H-pyrano[4,3-b]pyridin-2-yl)-2,6-diazaspiro[3.4]octan-2-yl)prop-2-en-1-one]"
44 nM,37 nM,> 5000 nM,"C=CC(=O)N1CC2(CCN(c3nc4c(c(-c5c(C)c(Cl)cc6cnn(C)c56)c3C)CCN(C(C)C)C4)C2)C1 [Example 12-22, 1-(6-(4-(5-chloro-1,6-dimethyl-1H-indazol-7-yl)-3-methyl-7-(2-propanyl)-5,6,7,8-tetrahydro-1,7-naphthyridin-2-yl)-2,6-diazaspiro[3.4]octan-2-yl)-2-propen-1-one]"
38 nM,41 nM,> 5000 nM,"C=CC(=O)N1CC2(CCN(c3nc4c(c(-c5cc(O)cc(Cl)c5C)c3C)COC(C)(C)C4)C2)C1 [Example 12-2, 1-(6-(4-(3-chloro-5-hydroxy-2-methylphenyl)-3,7,7-trimethyl-7,8-dihydro-5H-pyrano[4,3-b]pyridin-2-yl)-2,6-diazaspiro[3.4]octan-2-yl)prop-2-en-1-one]"
37 nM,28 nM,13400 nM,"C=CC(=O)N1CC2(CCN(c3cc4c(c(-c5c(C)ccc6cnn(C)c56)c3C#N)OCCC4)C2)C1 [Example 2-101, 8-(1,6-dimethyl-1H-indazol-7-yl)-6-(2-(2-propenoyl)-2,6-diazaspiro[3.4]octan-6-yl)-3,4-dihydro-2H-chromene-7-carbonitrile]"
20 nM,53 nM,> 5000 nM,"C=CC(=O)N1CC2(CCN(c3cc4c(c(-c5c(C)c(Cl)cc6cnn(C)c56)c3Cl)OCCC4)C2)C1 [Example 2-110, 1-(6-(7-chloro-8-(5-chloro-1,6-dimethyl-1H-indazol-7-yl)-3,4-dihydro-2H-chromen-6-yl)-2,6-diazaspiro[3.4]octan-2-yl)-2-propen-1-one]"
20 nM,36 nM,3780 nM,"C=CC(=O)N1CC2(CCN(c3nc4c(c(-c5c(C)cc(F)c6[nH]ncc56)c3C#N)C[C@H]3C[C@@H]4C3(C)C)C2)C1 [Example 12-11, (1R,9R)-6-(7-fluoro-5-methyl-1H-indazol-4-yl)-10,10-dimethyl-4-(2-(2-propenoyl)-2,6-diazaspiro[3.4]octan-6-yl)-3-azatricyclo[7.1.1.0^2,7] undeca-2,4,6-triene-5-carbonitrile]"
18 nM,37 nM,3740 nM,"C=CC(=O)N1CC2(CCN(c3nc4c(c(-c5c(C)ccn6cncc56)c3C#N)C[C@H]3C[C@@H]4C3(C)C)C2)C1 [Example 12-19, (1R,9R)-10,10-dimethyl-6-(7-methylimidazo[1,5-a]pyridin-8-yl)-4-(2-(2-propenoyl)-2,6-diazaspiro[3.4]octan-6-yl)-3-azatricyclo[7.1.1.0^2,7] undeca-2,4,6-triene-5-carbonitrile]"
7 nM,17 nM,> 5000 nM,"C=CC(=O)N1CC2(CCN(c3cc4c(c(-c5c(C)c(Cl)cc6cnn(C)c56)c3C#N)OCCC4)[C@H]2C)C1 [Example 2-107, 8-(5-chloro-1,6-dimethyl-1H-indazol-7-yl)-6-((5S)-5-methyl-2-(2-propenoyl)-2,6-diazaspiro[3.4]octan-6-yl)-3,4-dihydro-2H-chromene-7-carbonitrile]"
3 nM,18 nM,> 5000 nM,"C=CC(=O)N1CC2(CCN(c3cc4c(c(-c5c(C)c(Cl)cc6cnn(C)c56)c3C#N)OCCC4)C2)C1 [Example 2-104, 8-(5-chloro-1,6-dimethyl-1H-indazol-7-yl)-6-(2-(2-propenoyl)-2,6-diazaspiro[3.4]octan-6-yl)-3,4-dihydro-2H-chromene-7-carbonitrile]"
